Test results published in patent US20260317309A1, “N-HETEROCYLIC GPCR RECEPTOR AGONISTS, PHARMACEUTICAL COMPOSITIONS COMPRISING THE SAME, AND METHODS FOR THEIR USE” (Carmot Therapeutics, Inc., priority 2022, published 2026).

Biological target: T1, human GLP-1 receptor (Homo sapiens, UniProt P43220)
T1 construct: expressed in transfected cells
Assay: GLP-1R cAMP assay (cAMP accumulation in CHO cells stably overexpressing the human GLP-1 receptor, HitHunter kit)
Assay type: cell-based
Details: CHO cells stably overexpressing human GLP-1R, 30 min, 20-point dose response in triplicate
Procedure: CAMP accumulation was measured in Chinese hamster ovary (CHO) cells (10,000 cells/well) stably overexpressing the human GLP-1 receptor using the HitHunter CAMP Assay for Small Molecules Kit (Eurofins). Briefly, cells were grown in Ham's F12 Nutrient Mix with 10% FBS, and lifted with Cell Dissociation Buffer, Enzyme free, PBS based (ThermoFisher). Cells were pelleted, and resuspended in Hank's buffered saline solution with 10 mM HEPES, and 625 μM 3-isobutyl-1-methylxanthine. The anti-cAMP antibody reagent was then added to cells at a 1:2 ratio and 5 μL of mixture was seeded in 384-well small volume white assay plates, at 10,000 cells/well. Cells were then treated with 50 nL compound using an ECHO 550 acoustic dispenser (Labcyte) in a 20-point dose response format in triplicate for 30 min. Cells were then lysed, and detection reagents added according to the manufacturer's protocol. After overnight incubation, luminescence was measured using a Perkin Elmer Envision plate reader. Dose response curves were analyzed using GraphPad Prism 9.0.
In the Table, EC50 values are designated as follows: • A: 0 nM<EC50<0.1 nM; • B: 0.1 nM≤EC50<1.0 nM; • C: 1.0 nM≤EC50<10.0 nM; • D: 10.0 nM≤EC50<100 nM; • E: 100 nM≤EC50<500 nM; and • F: ≥500 nM

T1 sequence (P43220 24-463): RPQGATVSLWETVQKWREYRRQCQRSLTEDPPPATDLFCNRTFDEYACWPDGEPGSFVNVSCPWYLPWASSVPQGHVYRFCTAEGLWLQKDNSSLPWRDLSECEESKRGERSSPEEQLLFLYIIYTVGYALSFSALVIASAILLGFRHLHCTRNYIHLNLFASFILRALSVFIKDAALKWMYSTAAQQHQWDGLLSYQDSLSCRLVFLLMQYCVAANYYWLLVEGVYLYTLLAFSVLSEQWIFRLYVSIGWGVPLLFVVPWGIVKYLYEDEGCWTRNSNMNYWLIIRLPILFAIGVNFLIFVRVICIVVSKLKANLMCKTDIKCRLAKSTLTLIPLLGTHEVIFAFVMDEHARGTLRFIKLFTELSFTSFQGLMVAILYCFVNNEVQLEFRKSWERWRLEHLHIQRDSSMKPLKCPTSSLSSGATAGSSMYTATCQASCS

Row | Structure (SMILES) | EC50 [nM]
1 | CC(c1nc2ccc(C(=O)O)cc2n1C[C@@H]1CCO1)N1CC[C@H](Oc2ccnc(COc3ccc(F)cc3F)n2)C[C@@H]1C (mixture of isomers) [Compound 568, 2-{1-[(2S,4S)-4-({2-[(2,4-difluorophenoxy)methyl]pyrimidin-4-yl}oxy)-2-methylpiperidin-1-yl]ethyl}-1-{[(2S)-oxetan-2-yl]methyl}-1H-1,3-benzodiazole-6-carboxylic acid] | 0.1 to 1
2 | CC(c1nc2ccc(C(=O)O)cc2n1C[C@@H](O)CCO)N1CC[C@H](Oc2ccnc(COc3ccc(F)cc3F)n2)C[C@@H]1C (mixture of isomers) [Compound 569, 2-{1-[(2S,4S)-4-({2-[(2,4-difluorophenoxy)methyl]pyrimidin-4-yl}oxy)-2-methylpiperidin-1-yl]ethyl}-1-[(2S)-2,4-dihydroxybutyl]-1H-1,3-benzodiazole-6-carboxylic acid] | ≥ 500
3 | N#Cc1ccc(OCc2nccc(O[C@H]3CCN(Cc4nc5ccc(C(=O)O)cc5n4C[C@@H]4CCO4)C[C@H]3F)n2)c(F)c1 [Compound 552, 2-{[(3R,4S)-4-({2-[(4-cyano-2-fluorophenoxy)methyl]pyrimidin-4-yl}oxy)-3-fluoropiperidin-1-yl]methyl}-1-{[(2S)-oxetan-2-yl]methyl}-1H-1,3-benzodiazole-6-carboxylic acid] | 0.1 to 1
4 | N#Cc1ccc(OCc2nccc(O[C@H]3CCN(Cc4nc5ccc(C(=O)O)cc5n4C[C@@H]4CCO4)C[C@@H]3F)n2)c(F)c1 [Compound 553, 2-{[(3S,4S)-4-({2-[(4-cyano-2-fluorophenoxy)methyl]pyrimidin-4-yl}oxy)-3-fluoropiperidin-1-yl]methyl}-1-{[(2S)-oxetan-2-yl]methyl}-1H-1,3-benzodiazole-6-carboxylic acid] | 0.1 to 1
5 | C[C@H]1C[C@@H](Oc2ccnc(COc3ncc(Cl)cc3F)n2)CCN1Cc1nc2ccc(C(=O)O)cc2n1C[C@@H]1CCO1 [Compound 554, 2-(((2S,4S)-4-((2-(((5-Chloro-3-fluoropyridin-2-yl)oxy)methyl)pyrimidin-4-yl)oxy)-2-methylpiperidin-1-yl)methyl)-1-(((S)-oxetan-2-yl)methyl)-1H-benzo[d]imidazole-6-carboxylic acid] | < 0.1
6 | O=C(O)c1ccc2nc(CN3CC[C@H](Oc4ccnc(COc5ccc(Cl)cc5F)c4)C[C@@H]3CF)n(C[C@@H]3CCO3)c2c1 [Compound 555, 2-(((2R,4S)-4-((2-((4-Chloro-2-fluorophenoxy)methyl)pyridin-4-yl)oxy)-2-(fluoromethyl)piperidin-1-yl)methyl)-1-(((S)-oxetan-2-yl)methyl)-1H-benzo[d]imidazole-6-carboxylic acid] | < 0.1
7 | C[C@H]1C[C@@H](Oc2ccnc(COc3ccc(F)cc3C#N)n2)CCN1Cc1nc2ncc(C(=O)O)cc2n1C[C@@H]1CCO1 [Compound 556, 2-(((2S,4S)-4-((2-((2-Cyano-4-fluorophenoxy)methyl)pyrimidin-4-yl)oxy)-2-methylpiperidin-1-yl)methyl)-1-(((S)-oxetan-2-yl)methyl)-1H-imidazo[4,5-b]pyridine-6-carboxylic acid] | 0.1 to 1
8 | N#CC[C@H]1C[C@@H](Oc2ccnc(COc3ccc(F)cc3Cl)n2)CCN1Cc1nc2ccc(C(=O)O)cc2n1C[C@@H]1CCO1 [Compound 557, 2-{[(2S,4S)-4-({2-[(2-Chloro-4-fluorophenoxy)methyl]pyrimidin-4-yl}oxy)-2-(cyanomethyl)piperidin-1-yl]methyl}-1-{[(2S)-oxetan-2-yl]methyl}-1H-1,3-benzodiazole-6-carboxylic acid] | 1 to 10
9 | C[C@H]1C[C@@H](Oc2ccnc(COc3ccc(F)cc3C#N)n2)CCN1Cc1nc2ccc(C(=O)O)cc2n1C[C@H]1CCOC1 [Compound 558, 2-{[(2S,4S)-4-({2-[(2-cyano-4-fluorophenoxy)methyl]pyrimidin-4-yl}oxy)-2-methylpiperidin-1-yl]methyl}-1-{[(3R)-oxolan-3-yl]methyl}-1H-1,3-benzodiazole-6-carboxylic acid] | 0.1 to 1
10 | C[C@H]1C[C@@H](Oc2ccnc(COc3ccc(F)cc3F)n2)CCN1Cc1nc2ccc(C(=O)NO)cc2n1C[C@@H]1CCO1 [Compound 559, 2-(((2S,4S)-4-((2-((2,4-Difluorophenoxy)methyl)pyrimidin-4-yl)oxy)-2-methylpiperidin-1-yl)methyl)-N-hydroxy-1-(((S)-oxetan-2-yl)methyl)-1H-benzo[d]imidazole-6-carboxamide] | 0.1 to 1
11 | C[C@H]1C[C@@H](Oc2ccnc(COc3ccc(F)cc3C#N)n2)CCN1Cc1nc2ccc(C(=O)NO)cc2n1C[C@@H]1CCO1 [Compound 560, 2-{[(2S,4S)-4-({2-[(2-Cyano-4-fluorophenoxy)methyl]pyrimidin-4-yl}oxy)-2-methylpiperidin-1-yl]methyl}-N-hydroxy-1-{[(2S)-oxetan-2-yl]methyl}-1H-1,3-benzodiazole-6-carboxamide] | 0.1 to 1
12 | C[C@H]1C[C@@H](Oc2ccnc(COc3ccc(F)cc3C#N)n2)CCN1Cc1nc2ccc(C(=O)O)cc2n1C[C@H]1CCO1 [Compound 561, 2-{[(2S,4S)-4-({2-[(2-cyano-4-fluorophenoxy)methyl]pyrimidin-4-yl}oxy)-2-methylpiperidin-1-yl]methyl}-1-{[(2R)-oxetan-2-yl]methyl}-1H-1,3-benzodiazole-6-carboxylic acid] | 0.1 to 1
13 | C[C@H]1C[C@@H](Oc2ccnc(COc3ccc(F)cc3F)n2)CCN1Cc1nc2ccc(C(=O)O)cc2n1C[C@H]1CCO1 [Compound 562, 2-{[(2S,4S)-4-({2-[(2,4-difluorophenoxy)methyl]pyrimi-din-4-yl}oxy)-2-methylpiperi-din-1-yl]methyl}-1-{[(2R)-oxe-tan-2-yl]methyl}-1H-1,3-benzo-diazole-6-carboxylic acid] | 0.1 to 1
14 | C[C@H]1C[C@@H](Oc2ccnc(COc3ccc(F)cc3F)n2)CCN1Cc1nc2ccc(C(=O)NS(C)(=O)=O)cc2n1C[C@@H]1CCO1 [Compound 563, 2-(((2S,4S)-4-((2-((2,4-Difluorophenoxy)methyl)pyrimidin-4-yl)oxy)-2-methylpiperidin-1-yl)methyl)-N-(methylsulfonyl)-1-(((S)-oxetan-2-yl)methyl)-1H-benzo[d]imidazole-6-carboxamide] | 0.1 to 1
15 | C[C@H]1C[C@@H](Oc2ccnc(COc3ccc(F)cc3F)n2)CCN1Cc1nc2ccc(C(=O)NS(=O)(=O)C3CC3)cc2n1C[C@@H]1CCO1 [Compound 564, N-(Cyclopropanesulfonyl)-2-{[(2S,4S)-4-({2-[(2,4-difluorophenoxy)methyl]pyrimidin-4-yl}oxy)-2-methylpiperidin-1-yl]methyl}-1-{[(2S)-oxetan-2-yl]methyl}-1H-1,3-benzodiazole-6-carboxamide] | 0.1 to 1
16 | CC(c1nc2ccc(C(=O)O)cc2n1C[C@@H]1CCO1)N1CCC(Oc2ccnc(COc3ccc(F)cc3F)n2)CC1 (stereo partly drawn) [Compound 565, 2-(1-(4-((2-((2,4-Difluorophenoxy)methyl)pyrimidin-4-yl)oxy)piperidin-1-yl)ethyl)-1-(((S)-oxetan-2-yl)methyl)-1H-benzo[d]imidazole-6-carboxylic acid] | 1 to 10
17 | C[C@H]1C[C@@H](Oc2ccnc(COc3ncc(F)cc3F)n2)CCN1Cc1nc2ccc(C(=O)O)cc2n1C[C@@H]1CCO1 [Compound 566, 2-{[(2S,4S)-4-[(2-{[(3,5-Difluoropyridin-2-yl)oxy]methyl}pyrimidin-4-yl)oxy]-2-methylpiperidin-1-yl]methyl}-1-{[(2S)-oxetan-2-yl]methyl}-1H-1,3-benzodiazole-6-carboxylic acid] | 0.1 to 1
